According to PubChem BioAssay (NCI):
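Growth conditions: 96-well plates. Treatment: test compound, 48 hours, 5 concentrations. Analysis: linear interpolation between bracketing concentrations; unreached endpoints set to highest concentration. At the TGI there is no net growth.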

Experiments:
Experiment in all cases: inhibition of tumour cell growth, NCI panel, 48 h
SF-268 CNS = test system: SF-268 CNS
NCI/ADR-RES ovarian = test system: NCI/ADR-RES ovarian
HL-60(TB) leukemia = test system: HL-60(TB) leukemia
SF-539 CNS = test system: SF-539 CNS
HOP-92 NSCLC = test system: HOP-92 NSCLC
EKVX NSCLC = test system: EKVX NSCLC
IGROV1 ovarian = test system: IGROV1 ovarian
SF-295 CNS = test system: SF-295 CNS
SK-MEL-5 melanoma = test system: SK-MEL-5 melanoma
NCI-H23 lung = test system: NCI-H23 lung
NCI-H460 lung = test system: NCI-H460 lung
HCC-2998 colon = test system: HCC-2998 colon
UACC-62 melanoma = test system: UACC-62 melanoma
UO-31 renal = test system: UO-31 renal
MALME-3M melanoma = test system: MALME-3M melanoma
HT29 colon = test system: HT29 colon
T-47D breast = test system: T-47D breast
MCF7 breast = test system: MCF7 breast
UACC-257 melanoma = test system: UACC-257 melanoma
SW-620 colon = test system: SW-620 colon
K-562 leukemia = test system: K-562 leukemia
786-0 renal = test system: 786-0 renal
M14 melanoma = test system: M14 melanoma
CCRF-CEM leukemia = test system: CCRF-CEM leukemia
NCI-H226 lung = test system: NCI-H226 lung
HCT-15 colon = test system: HCT-15 colon
ACHN renal = test system: ACHN renal
TK-10 renal = test system: TK-10 renal
MDA-N = test system: MDA-N
MOLT-4 leukemia = test system: MOLT-4 leukemia
NCI-H522 lung = test system: NCI-H522 lung
COLO 205 colon = test system: COLO 205 colon
A549 NSCLC = test system: A549 NSCLC
A498 renal = test system: A498 renal
U251 CNS = test system: U251 CNS
OVCAR-5 ovarian = test system: OVCAR-5 ovarian
SN12C renal = test system: SN12C renal
OVCAR-4 ovarian = test system: OVCAR-4 ovarian
HS 578T breast = test system: HS 578T breast
LOX IMVI melanoma = test system: LOX IMVI melanoma
KM12 colon = test system: KM12 colon
OVCAR-8 ovarian = test system: OVCAR-8 ovarian
DU-145 prostate = test system: DU-145 prostate
PC-3 prostate = test system: PC-3 prostate
SK-OV-3 ovarian = test system: SK-OV-3 ovarian
BT-549 breast = test system: BT-549 breast
SK-MEL-2 melanoma = test system: SK-MEL-2 melanoma
SNB-19 CNS = test system: SNB-19 CNS
SK-MEL-28 melanoma = test system: SK-MEL-28 melanoma
CAKI-1 renal = test system: CAKI-1 renal
HCT-116 colon = test system: HCT-116 colon
MDA-MB-231 breast = test system: MDA-MB-231 breast
MDA-MB-435 = test system: MDA-MB-435
OVCAR-3 ovarian = test system: OVCAR-3 ovarian
RPMI-8226 leukemia = test system: RPMI-8226 leukemia
RXF 393 renal = test system: RXF 393 renal
SR leukemia = test system: SR leukemia
HOP-62 NSCLC = test system: HOP-62 NSCLC
SNB-75 CNS = test system: SNB-75 CNS

`Cc1cc2[nH]c3c(C#N)c4c(c(=O)n3c2cc1C)CCCC4` showed a TGI (SF-268 CNS) of over 100 µM, a TGI (NCI/ADR-RES ovarian) of over 100 µM and a TGI (HL-60(TB) leukemia) of over 100 µM. It also gave a TGI (SF-539 CNS) of over 100 µM, a TGI (HOP-92 NSCLC) of over 100 µM and a TGI (EKVX NSCLC) of over 100 µM. It also gave a TGI (IGROV1 ovarian) of over 100 µM, a TGI (SF-295 CNS) of 29.5 µM and a TGI (SK-MEL-5 melanoma) of over 100 µM. The TGI (NCI-H23 lung) was over 100 µM, the TGI (NCI-H460 lung) was over 100 µM and the TGI (HCC-2998 colon) was over 100 µM. The TGI (UACC-62 melanoma) was over 100 µM, the TGI (UO-31 renal) was over 100 µM and the TGI (MALME-3M melanoma) was over 100 µM. It also gave a TGI (HT29 colon) of over 100 µM, a TGI (T-47D breast) of over 100 µM and a TGI (MCF7 breast) of over 100 µM. For the same molecule, the TGI (UACC-257 melanoma) was over 100 µM, the TGI (SW-620 colon) was over 100 µM and the TGI (K-562 leukemia) was over 100 µM. The TGI (786-0 renal) was over 100 µM, the TGI (M14 melanoma) was 27.6 µM and the TGI (CCRF-CEM leukemia) was over 100 µM. For the same molecule, the TGI (NCI-H226 lung) was over 100 µM, the TGI (HCT-15 colon) was over 100 µM and the TGI (ACHN renal) was over 100 µM. The TGI (TK-10 renal) was over 100 µM, the TGI (MDA-N) was over 100 µM and the TGI (MOLT-4 leukemia) was over 100 µM. The TGI (NCI-H522 lung) was over 100 µM, the TGI (COLO 205 colon) was over 100 µM and the TGI (A549 NSCLC) was over 100 µM. It also gave a TGI (A498 renal) of over 100 µM, a TGI (U251 CNS) of over 100 µM and a TGI (OVCAR-5 ovarian) of 32.7 µM. It also gave a TGI (SN12C renal) of over 100 µM, a TGI (OVCAR-4 ovarian) of over 100 µM and a TGI (HS 578T breast) of over 100 µM. The TGI (LOX IMVI melanoma) was over 100 µM, the TGI (KM12 colon) was over 100 µM and the TGI (OVCAR-8 ovarian) was over 100 µM. For the same molecule, the TGI (DU-145 prostate) was over 100 µM, the TGI (PC-3 prostate) was over 100 µM and the TGI (SK-OV-3 ovarian) was 27.1 µM. The TGI (BT-549 breast) was over 100 µM, the TGI (SK-MEL-2 melanoma) was over 100 µM and the TGI (SNB-19 CNS) was over 100 µM. It also gave a TGI (SK-MEL-28 melanoma) of over 100 µM, a TGI (CAKI-1 renal) of over 100 µM and a TGI (HCT-116 colon) of over 100 µM. It also gave a TGI (MDA-MB-231 breast) of over 100 µM, a TGI (MDA-MB-435) of over 100 µM and a TGI (OVCAR-3 ovarian) of over 100 µM.
In the case of `Cn1c2ccccc2n2c(=O)c3cc([N+](=O)[O-])ccc3c(C#N)c12`, the TGI (SF-268 CNS) is reported as over 100 µM, the TGI (NCI/ADR-RES ovarian) is reported as over 100 µM and the TGI (HL-60(TB) leukemia) is reported as over 100 µM. The TGI (SF-539 CNS) was over 100 µM, the TGI (EKVX NSCLC) was over 100 µM and the TGI (IGROV1 ovarian) was over 100 µM. For the same molecule, the TGI (SF-295 CNS) was over 100 µM, the TGI (SK-MEL-5 melanoma) was over 100 µM and the TGI (NCI-H23 lung) was over 100 µM. The TGI (NCI-H460 lung) was over 100 µM, the TGI (HCC-2998 colon) was over 100 µM and the TGI (UACC-62 melanoma) was over 100 µM. It also gave a TGI (RPMI-8226 leukemia) of over 100 µM, a TGI (UO-31 renal) of over 100 µM and a TGI (HT29 colon) of over 100 µM. It also gave a TGI (T-47D breast) of over 100 µM, a TGI (MCF7 breast) of over 100 µM and a TGI (UACC-257 melanoma) of over 100 µM. It also gave a TGI (SW-620 colon) of over 100 µM, a TGI (RXF 393 renal) of over 100 µM and a TGI (K-562 leukemia) of over 100 µM. For the same molecule, the TGI (786-0 renal) was over 100 µM, the TGI (M14 melanoma) was over 100 µM and the TGI (CCRF-CEM leukemia) was over 100 µM. For the same molecule, the TGI (NCI-H226 lung) was over 100 µM, the TGI (HCT-15 colon) was over 100 µM and the TGI (ACHN renal) was over 100 µM. For the same molecule, the TGI (TK-10 renal) was over 100 µM, the TGI (MDA-N) was over 100 µM and the TGI (MOLT-4 leukemia) was over 100 µM. It also gave a TGI (NCI-H522 lung) of over 100 µM, a TGI (COLO 205 colon) of over 100 µM and a TGI (A549 NSCLC) of over 100 µM. The TGI (U251 CNS) was over 100 µM, the TGI (OVCAR-5 ovarian) was over 100 µM and the TGI (OVCAR-4 ovarian) was over 100 µM. It also gave a TGI (HS 578T breast) of over 100 µM, a TGI (LOX IMVI melanoma) of over 100 µM and a TGI (KM12 colon) of over 100 µM. The TGI (OVCAR-8 ovarian) was over 100 µM, the TGI (DU-145 prostate) was over 100 µM and the TGI (PC-3 prostate) was over 100 µM. For the same molecule, the TGI (SR leukemia) was over 100 µM, the TGI (SK-OV-3 ovarian) was over 100 µM and the TGI (BT-549 breast) was over 100 µM. It also gave a TGI (SK-MEL-2 melanoma) of over 100 µM, a TGI (SNB-19 CNS) of over 100 µM and a TGI (HOP-62 NSCLC) of over 100 µM. The TGI (SK-MEL-28 melanoma) was over 100 µM, the TGI (HCT-116 colon) was over 100 µM and the TGI (MDA-MB-435) was over 100 µM. For the same molecule, the TGI (SNB-75 CNS) was over 100 µM and the TGI (OVCAR-3 ovarian) was over 100 µM.
